{"source": "patent US6833373B1", "about": "“Method of using an integrin antagonist and one or more antineoplastic agents as a combination therapy in the treatment of neoplasia” (G.D. Searle & Co., priority 1998, dated 2004)", "key": {"[1]": {"system": "human U251 glioblastoma", "assay": "U251 glioblastoma model", "format": "in vivo, SCID mice", "conditions": "for tumor growth (mean tumor volume with time): compound I7 10 mg/kg BID PO day 14-44, BCNU 12 mg/kg once a day on days 14, 18 and 22", "protocol": "compound I7 was evaluated in the human U251 glioblastoma model. The tumors were implanted onto the flanks of SCID mice and the mean tumor volume with time was calculated. […] These clinically relevant measurements of antitumor efficacy establish the antitumor efficacy of compound I7, especially when combined with standard of care chemotherapeutic agents."}, "[2]": {"system": "lung tumors", "assay": "Implanted tumor cells, lung tumors in mice, compound I7 with or without cisplatin", "format": "in vivo", "conditions": "compared to the control groups; lung tumors greater than 2,000 mm^3", "text": "In an additional experiment, tumor cells were implanted into mice; lung tumors of volumes greater than 2,000 mm^3 were developed. The mice were then separated into four groups, including a control group and three treatment groups: compound I7 alone; compound I7 with cisplatin (a cytotoxic drug); or cisplatin alone. Compared to the control groups, the mice treated with combination compound I7/cisplatin therapy experienced more than an 80 percent reduction in tumor size. In comparison, the group receiving cisplatin alone experienced 50 percent reductions in tumor size and the compound I7 group experienced 20-30 percent reductions. These studies indicate that compound I7 has prominent anti-tumor activity."}, "[3]": {"system": "M21 human melanoma cells", "assay": "M21 human melanoma model", "format": "in vivo, SCID mice", "protocol": "In the M21 model, M21 human melanoma cells implanted subcutaneously into SCID mice developed tumors which grew to approximately 400 mm^3 within 30 days. […] Cisplatin was administered once by ip injection (10 mg/kg) on day 14. […] The results of this dose sequencing experiment establish the efficacy of compound I7 in combination therapy with cisplatin when administered before, concurrent with, or after cisplatin dosing."}, "[4]": {"system": "Rice 500 rat Leydig testicular tumor", "assay": "Rice 500 rat Leydig testicular tumor model", "format": "in vivo, SCID mice", "conditions": "for survival compared to vehicle treated controls: single agents, p<0.05", "protocol": "The Rice 500 rat Leydig testicular tumor grows very quickly when implanted into the flank of SCID mice. […] Tumor growth was reduced by about 50% at the […] dose in this aggressive model. […] Similar to the results seen in the M21 tumor model, compound I7 increased the effects of cisplatin in the Leydig tumor model. […] In a similar experiment, the effects of compound I7, cisplatin and the combination were evaluated for potentiation of overall survival in the Leydig tumor mice. Survival was increased by either compound I7 or cisplatin alone when compared to vehicle treated controls (p<0.05). More importantly, the combination of the two agents almost doubled overall survival (from 17 to 29 days) (p<0.0l combination vs. cisplatin, p<0.001 combination vs. control). Thus, the ability of compound I7 to work alone or in combination therapy to prevent tumor growth clearly correlates with enhanced survival."}, "[5]": {"system": "A2780 human ovarian carcinoma", "assay": "A2780 mouse model", "format": "in vivo, SCID mice", "conditions": "compound I7 10 mg/kg BID PO; cisplatin 10 mg/kg ip once on day 20", "text": "compound I7 prevents the growth of human ovarian carcinoma in SCID mice. […] Survival studies are now underway to characterize the survival benefit of combination therapy in this model."}, "[6]": {"system": "angiogenesis induced by bFGF or VEGF", "assay": "Corneal micropocket assay", "format": "in vivo, female C57BL6 mice", "conditions": "BID", "text": "In this model, an intrastromal pocket is surgically created in the normally avascular cornea of female C57BL6 mice 1 mm distance from the corneal-scleral junction. A slow release hydron polymer pellet containing an angiogenic growth factor (bFGF or VEGF) is inserted into the corneal pocket. The pocket is self sealing and antibiotic ointment is placed in the eye."}, "[7]": {"system": "435/GFP HAL-1 (MDA-MB-435 breast carcinoma) cells", "assay": "Metastasis model, 435/GFP HAL-1 orthotopic implantation", "format": "in vivo, SCID mice", "conditions": "for reduction in lung metastatic burden: eight weeks", "text": "Accurate quantitation of early-stage metastasis in animal models is typically hampered by the lack of sensitive and convenient assays to detect low numbers of tumor cells in a background of normal tissue. Quantitation of late-stage metastasis by counting of visible foci or comparison of organ weights requires substantial tumor burden which can take 3-4 months to develop in conventional models of breast cancer, and generally cannot detect subtle differences. […] The GFP-transfected cells are easily detected by flow cytometry, and fixation of the cells or the addition of antibodies or exogenous substrates is not required. A highly aggressive clone was isolated from the lung of a SCID mouse implanted in the mammary fat pad with several GFP-expressing clones. […] Eight weeks later, lungs were removed and weighed."}, "[8]": {"system": "Cancer cells implanted subcutaneously", "conditions": "large-volume tumors (>1,500 mm^3); dose dependent; cited from earlier work"}, "[9]": {"system": "Lewis Lung carcinoma (LLC)", "assay": "Lewis Lung carcinoma (LLC) model", "conditions": "for growth of the LLC tumor (primary tumor mass): compound I7 1 and 10 mg/kg BID PO from day 1, cisplatin single ip dose 10 mg/kg on day 5; for median survival time: compound I7 at 10 mg/kg"}, "[10]": {"conditions": "15 mg/kg/day, biliary cirrhosis trials; cited from earlier work"}}, "data": [{"smiles": "O=NN(CCCl)C(=O)NCCCl", "note": "[BCNU, carmustine]", "values": [{"measurement": "tumor growth (mean tumor volume with time)", "setting": "[1]", "result": "regression of the tumors to the limit of detectability, but the tumors grew back"}, {"measurement": "duration of the response", "setting": "[1]; p<0.01", "result": 5, "unit": "days"}]}, {"smiles": "O=C(O)C[C@@H](NC(=O)CNC(=O)c1cc(O)cc(NC2=NCC(O)CN2)c1)c1cc(Cl)cc(Br)c1O", "note": "(stereo partly drawn) [compound I7, (3R)-N-[3-hydroxy-5-[(1,4,5,6-tetrahydro-5-hydroxy-2-pyrimidinyl)amino]benzoyl]glycyl-3-(3-bromo-5-chloro-2-hydroxyphenyl)-b-alanine]", "values": [{"measurement": "reduction in tumor size", "setting": "[2]", "result": "20-30%"}, {"measurement": "time to tumor volume >200 mm^3", "setting": "[3]; 10 mg/kg", "result": 27, "unit": "days"}, {"measurement": "growth of M21 tumors", "setting": "[3]; oral BID, at time of tumor implantation or beginning up to 21 days after", "result": "dose-dependently retarded the growth"}, {"measurement": "tumor growth reduced", "setting": "[4]; 2 mg/ml dose in drinking water", "result": "about 50%"}, {"measurement": "inhibition of tumor growth", "setting": "[4]; compound I7 10 or 100 mg/kg BID PO from day 5, monotherapy or with cisplatin 10 mg/kg ip once day 5, p<0.01 vs control", "result": "Dose-related inhibition of tumor growth"}, {"measurement": "tumor growth", "setting": "[4]; in the drinking water at 0.02 to 2 mg/ml", "result": "inhibited tumor growth dose-dependently"}, {"measurement": "survival compared to vehicle treated controls", "setting": "[4]", "result": "increased"}, {"measurement": "tumor growth (mean tumor volume with time)", "setting": "[1]", "result": "little inhibition of tumor growth"}, {"measurement": "tumor growth", "setting": "[5]", "result": "equally effective as cisplatin"}, {"measurement": "angiogenesis induced by either bFGF or VEGF", "setting": "[6]", "result": "inhibited angiogenesis"}, {"measurement": "inhibition of the angiogenic response", "setting": "[6]; maximal inhibitory activity at 10 mg/kg BID orally", "result": "up to 42%"}, {"measurement": "reduction in lung metastatic burden", "setting": "[7]; 10 mg/kg BID orally", "result": 55, "unit": "%"}, {"measurement": "reduction in lung metastatic burden", "setting": "[7]; 30 mg/kg BID orally", "result": 69, "unit": "%"}, {"measurement": "spontaneous metastasis of 435 breast carcinoma cells to the lungs", "setting": "[7]; 1, 10 and 30 mg/kg BID orally, visual counting or flow cytometry", "result": "dose-dependently reduced"}, {"measurement": "growth of the primary tumor mass", "setting": "[7]; mouse, in vivo", "result": "did not delay the growth"}, {"measurement": "histological examination of lung sections", "setting": "[7]; mouse, in vivo", "result": "dramatic reduction in the number of large macroscopic metastases and an increase in the presence of microscopic foci of metastases"}, {"measurement": "reduced tumor growth", "setting": "[8]", "result": "≤ 85", "unit": "%"}, {"measurement": "growth of the LLC tumor (primary tumor mass)", "setting": "[9]", "result": "did not affect the growth"}, {"measurement": "median survival time", "setting": "[9]; cisplatin 10 mg/kg ip day 5", "result": 33, "unit": "days"}]}, {"smiles": "N.N.[Cl][Pt][Cl]", "note": "[cisplatin, reference compound]", "values": [{"measurement": "reduction in tumor size", "setting": "[2]", "result": 50, "unit": "%"}, {"measurement": "survival compared to vehicle treated controls", "setting": "[4]", "result": "increased"}, {"measurement": "tumor growth", "setting": "[5]", "result": "decreasing tumor growth"}, {"measurement": "time to develop a tumor >500 mm^3", "setting": "[9]; cisplatin 10 mg/kg ip day 5, compound I7 10 mg/kg", "result": 22.4, "unit": "days"}, {"measurement": "growth of the LLC tumor (primary tumor mass)", "setting": "[9]", "result": "significantly retarded the growth"}, {"measurement": "median survival time", "setting": "[9]; cisplatin 10 mg/kg ip day 5", "result": 33, "unit": "days"}]}, {"smiles": "C[C@H](CCC(=O)O)[C@H]1CC[C@H]2[C@@H]3[C@@H](O)C[C@@H]4C[C@H](O)CC[C@]4(C)[C@H]3CC[C@]12C", "note": "[URSO, Ursodeoxycholate]", "values": [{"measurement": "tolerability", "setting": "[10]", "result": "extremely well tolerated and without toxicity"}]}]}
